Laboratory results: US10232013B2, “Use of an antimicrobial peptide TP4 in treating a cancer” (Academia Sinica, priority 2016, dated 2019)
Marks after values point to notes of the source that are not given here. Where no end group is shown, it is not given here.

Experiments:
MB231 (MDA-MB231) cells = test: MTS cell viability assay, MB231; format: cell-based, human; settings: mean±SD
Experimental: (§1) Cell-lines used in this study were purchased from the Bioresource Collection and Research Center (BCRC) in and the cells were cultured by the standard cell culture procedures and conditions provided by the BCRC. MB231 (BCRC 60425), MB453 (BCRC 60429), and HDF cells were cultured as previously described by Ting et al. MCF7 […] cells were maintained in α-MEM medium (ThermoFisher Scientific) supplemented with 2 mM L-glutamine, 10% FBS, 0.1 mM non-essential amino acids, 1 mM sodium pyruvate, and antibiotics (100 U mL^−1 penicillin G and […] streptomycin). M10 (BCRC 60197) cells were maintained in α-MEM medium (ThermoFisher Scientific) supplemented with 10% FBS and antibiotics. With the exception of MB231 and MB453, all cells were cultured at 37° C. with 5% CO2. For the cell viability and transfection assay, 1×10^4 cells [5×10^3 M10 cells were seeded and cultured for 48 h to allow the cells sufficient time for attachment] were seeded into the wells of a 96-well plate and cultured overnight. For the transfection assays, cells were transfected with 0.1-0.4 μg FOSB/FOSAB expression plasmid (Origene Technology Inc.) and cell viability was determined after 72 h. The transfection efficiencies (number of cells expressing eGFP/all cells) of the MB231 transfection assays were determined by observing ten randomly selected fields (from three independent transfections) of control GFP plasmid transfections under an inverted microscope (Olympus, IX71) coupled to a digital camera (Olympus DP80), using an […] (LCPlanFI 20×/0.40 Ph1). CellSens standard software (Olympus) was used for image acquisition. During the drug treatment assay, inhibitors (PD98059, BAPTA-AM, and AlP II) were added 30 min prior to TP4, and cell viability was determined at indicated time-points. Transfection was performed using LipofectAMINE™ 3000 (ThermoFisher Scientific), according to the manufacturer's recommendations. Knock-down cells were generated by transducing MB231 cells with pre-synthesized FOSB (or control) shRNA lentiviral particles (Santa Cruz Biotechnology), and selecting puromycin-resistant cells in accordance with the manufacturer's standard protocol. MB231 or M10 cells stably expressing eGFP or mOrange2 were generated through transfection with peGFP-puromycin or pmOrange2-C1 plasmid, followed by puromycin (5 μg mL^−1) or G418 (500 μg mL^−1) selection as described above.
(§2) Cell viability was quantitatively analyzed using the CellTiter-Glo® Luminescent Cell Viability Assay kit (ATP assay) and CellTiter 96® AQueous Non-Radioactive Cell Proliferation Assay kit (MTS assay) (Promega) in accordance with the manufacturer's protocol. For MTS assay, 1×10^4 cells were seeded into the wells of a 96-well plate and cultured overnight [5×10^3 M10 cells were seeded and cultured for 48 h to enable sufficient well attachment]. Cells were subsequently treated with different doses of TP4 (2.5-20 μg mL^−1) and harvested at the indicated time-points (3-24 h). Reaction mixtures (20 μL: MTS+PMS, using a ratio 20:1) were directly added to the cells, and the plates were incubated for 3 h at 37° C. Absorbance at 490 nm is directly proportional to the number of living cells in culture and was measured using a photometer (SpectraMax® i3, Molecular Devices). ATP assay was performed as previously described by Ting et al. Lactate dehydrogenase (LDH) assays were performed by quantitatively measuring cell lysis with a Cytotoxicity Detection Kit^PLUS (LDH) (Roche) in accordance with the manufacturer's protocol. The LDH standard was purchased from Cayman Chemical. Briefly, 1×10^4 cells were seeded into the wells of a 96-well plate and cultured overnight. Culture media were replaced with fresh medium containing 1% FBS and cells were subsequently treated with different doses of TP4 (2.5-20 μg mL^−1). Supernatants were harvested at 3 h. […]

[1] = MTS cell viability assay, M10; format: cell-based; settings: human, M10 normal human mammary epithelial cells, mean±SD, read-out: Cellular toxicity (cell viability), MTS assay
Experimental: as §1, §2

In the case of “FIHHIIGGLFSAGKAIHRLIRRRRR [TP4, tilapia piscidin 4]”, the “Cellular toxicity (cell viability), MTS assay” value (“Cellular toxicity” for short) (MB231 (MDA-MB231) cells; MB231, TP4 2.5 μg/mL, 3 h) is reported as 95.34 ± 5.56^a, the “Cellular toxicity” value (MB231 (MDA-MB231) cells; MB231, TP4 2.5 μg/mL, 6 h) is reported as 95.93 ± 8.86^a and the “Cellular toxicity” value (MB231 (MDA-MB231) cells; MB231, TP4 2.5 μg/mL, 12 h) is reported as 87.60 ± 12.28^c. For the same sequence, the “Cellular toxicity” value (MB231 (MDA-MB231) cells; MB231, TP4 2.5 μg/mL, 24 h) was 87.01 ± 9.69^c, the “Cellular toxicity” value (MB231 (MDA-MB231) cells; MB231, TP4 5.0 μg/mL, 3 h) was 90.55 ± 10.57^a and the “Cellular toxicity” value (MB231 (MDA-MB231) cells; MB231, TP4 5.0 μg/mL, 6 h) was 82.30 ± 6.40^d. For the same sequence, the “Cellular toxicity” value (MB231 (MDA-MB231) cells; MB231, TP4 5.0 μg/mL, 12 h) was 79.00 ± 9.48^d, the “Cellular toxicity” value (MB231 (MDA-MB231) cells; MB231, TP4 5.0 μg/mL, 24 h) was 71.69 ± 6.84^d and the “Cellular toxicity” value (MB231 (MDA-MB231) cells; MB231, TP4 10.0 μg/mL, 3 h) was 75.01 ± 11.29^d. For the same sequence, the “Cellular toxicity” value (MB231 (MDA-MB231) cells; MB231, TP4 10.0 μg/mL, 6 h) was 65.28 ± 6.61^d, the “Cellular toxicity” value (MB231 (MDA-MB231) cells; MB231, TP4 10.0 μg/mL, 12 h) was 61.63 ± 11.38^d and the “Cellular toxicity” value (MB231 (MDA-MB231) cells; MB231, TP4 10.0 μg/mL, 24 h) was 57.98 ± 6.62^d. For the same sequence, the “Cellular toxicity” value (MB231 (MDA-MB231) cells; MB231, TP4 15.0 μg/mL, 3 h) was 52.48 ± 11.16^d, the “Cellular toxicity” value (MB231 (MDA-MB231) cells; MB231, TP4 15.0 μg/mL, 6 h) was 42.59 ± 10.14^d and the “Cellular toxicity” value (MB231 (MDA-MB231) cells; MB231, TP4 15.0 μg/mL, 12 h) was 38.31 ± 7.26^d. The “Cellular toxicity” value (MB231 (MDA-MB231) cells; MB231, TP4 15.0 μg/mL, 24 h) was 29.78 ± 4.79^d, the “Cellular toxicity” value (MB231 (MDA-MB231) cells; MB231, TP4 20.0 μg/mL, 3 h) was 30.57 ± 4.64^d and the “Cellular toxicity” value (MB231 (MDA-MB231) cells; MB231, TP4 20.0 μg/mL, 6 h) was 26.65 ± 7.16^d. For the same sequence, the “Cellular toxicity” value (MB231 (MDA-MB231) cells; MB231, TP4 20.0 μg/mL, 12 h) was 19.31 ± 5.73^d, the “Cellular toxicity” value (MB231 (MDA-MB231) cells; MB231, TP4 20.0 μg/mL, 24 h) was 16.19 ± 4.15^d and the viability at 3 h, 2.5 μg/mL ([1]; M10, TP4 2.5 μg/mL, 3 h) was 101 ± 4.23%. The viability at 6 h, 2.5 μg/mL ([1]; M10, TP4 2.5 μg/mL, 6 h) was 94.8 ± 7.52%, the viability at 12 h, 2.5 μg/mL ([1]; M10, TP4 2.5 μg/mL, 12 h) was 96 ± 5.66% and the viability at 24 h, 2.5 μg/mL ([1]; M10, TP4 2.5 μg/mL, 24 h) was 94 ± 3.81%. For the same sequence, the viability at 3 h, 5 μg/mL ([1]; M10, TP4 5.0 μg/mL, 3 h) was 97.1 ± 4.9%, the viability at 6 h, 5 μg/mL ([1]; M10, TP4 5.0 μg/mL, 6 h) was 92 ± 5.12% and the viability at 12 h, 5 μg/mL ([1]; M10, TP4 5.0 μg/mL, 12 h) was 92.6 ± 4.99%. The viability at 24 h, 5 μg/mL ([1]; M10, TP4 5.0 μg/mL, 24 h) was 91.2 ± 3.99%, the viability at 3 h, 10 μg/mL ([1]; M10, TP4 10.0 μg/mL, 3 h) was 90.8 ± 4.76% and the viability at 6 h, 10 μg/mL ([1]; M10, TP4 10.0 μg/mL, 6 h) was 84 ± 7.47%. For the same sequence, the viability at 12 h, 10 μg/mL ([1]; M10, TP4 10.0 μg/mL, 12 h) was 83.8 ± 4.27%, the viability at 24 h, 10 μg/mL ([1]; M10, TP4 10.0 μg/mL, 24 h) was 80.7 ± 5.72% and the viability at 3 h, 15 μg/mL ([1]; M10, TP4 15.0 μg/mL, 3 h) was 84.8 ± 5.83%. The viability at 6 h, 15 μg/mL ([1]; M10, TP4 15.0 μg/mL, 6 h) was 78.9 ± 5.57%, the viability at 12 h, 15 μg/mL ([1]; M10, TP4 15.0 μg/mL, 12 h) was 65.5 ± 6.68% and the viability at 24 h, 15 μg/mL ([1]; M10, TP4 15.0 μg/mL, 24 h) was 58.4 ± 6.8%. It also gave a viability at 3 h, 20 μg/mL ([1]; M10, TP4 20.0 μg/mL, 3 h) of 67.9 ± 5.16%, a viability at 6 h, 20 μg/mL ([1]; M10, TP4 20.0 μg/mL, 6 h) of 60.3 ± 4.97% and a viability at 12 h, 20 μg/mL ([1]; M10, TP4 20.0 μg/mL, 12 h) of 47.2 ± 8.42%. It also gave a viability at 24 h, 20 μg/mL ([1]; M10, TP4 20.0 μg/mL, 24 h) of 44 ± 4.5%.
